In brackets after ≈: the same amount, converted by molar mass.
Tests used:
Test in all cases: In vitro antibacterial evaluation: minimum inhibitory concentration (MIC), broth dilution method
Assay type in all cases: cell-based
[1] = test system: Staphylococcus sp.; details: for MIC Staphylococcus aureus (ATCC 29213): strain ATCC 29213; for MIC Staphylococcus aureus (GC 1131): strain GC 1131; for MIC Staphylococcus aureus (GC 4541): strain GC 4541; for MIC Staphylococcus aureus (GC 4542): strain GC 4542; for MIC Staphylococcus aureus-SMITH (GC 4543): strain GC 4543; for MIC Staphylococcus aureus (GC 4544): strain GC 4544; for MIC Staphylococcus aureus (GC 4545): strain GC 4545; for MIC Staphylococcus haemolyticus (GC 4546): strain GC 4546; for MIC Coagulase Negative Staphylococcus (GC 4547): strain GC 4547; for MIC Coagulase Negative Staphylococcus (GC 4548): strain GC 4548; for MIC Coagulase Negative Staphylococcus (GC 4549): strain GC 4549; for MIC Coagulase Negative Staphylococcus (GC 4551): strain GC 4551; for MIC Coagulase Negative Staphylococcus (ID-3941): strain ID-3941
Description: (§1) The minimum inhibitory concentration (MIC), the lowest concentration of the antibiotic which inhibits growth of the test organism, is determined by the broth dilution method using Muller-Hinton II […] (Baltimore Biological Laboratories) following the recommendations of the National Committee for Clinical Laboratory Standards [Methods for dilution antimicrobial susceptibility tests for bacteria that grow aerobically, approved standard M7-A2, National Committee for Clinical Laboratory Standards, Villanova, Pa].
(§2) An inoculum level of 5×10^5 CFU/mL, and a range of antibiotic concentrations (64-0.06 μg/mL) is used. […] The test organisms include a spectrum of Gram-positive bacteria comprised of Staphylococcus sp., Streptococcus sp. and Enterococcus sp. These organisms include recent clinical isolates that are resistant to methicillin, penicillin and/or vancomycin.

[2] = test system: Streptococcus sp.; details: broth dilution, 5×10^5 CFU/mL, 18 hours at 35° C.
Description: as §1, §2

[3] = test system: Escherichia coli; details: 5×10^5 CFU/mL, 18 hours at 35° C.
Description: as §1, §2

[4] = test system: Enterococcus sp.; details: broth dilution, 5×10^5 CFU/mL, 18 hours at 35° C.
Description: as §1, §2

[5] = broth dilution, 18 hours at 35° C.

CC(c1ccccc1)C1NC(=O)CNC(=O)C(CO)NC(=O)C(C(O)C2CNC(=N)N2C2OC(CO)C(O)C(O)C2O)NC(=O)C(C(O)C2CNC(=N)N2)NC(=O)C(Cc2ccc(OC3OC(CO)C(OC4OC5COC(CC(C)(C)C)OC5C(O)C4O)C(O)C3O)cc2)NC1=O (stereo not drawn) [Example 110]
MIC Staphylococcus aureus (ATCC 29213) [1]: 1 mg/L (≈ 0.726 µM)
MIC Staphylococcus aureus (ATCC 29213) [1, 5]: 1 mg/L (≈ 0.726 µM)
MIC Staphylococcus aureus (GC 1131) [1]: 1 mg/L (≈ 0.726 µM)
MIC Staphylococcus aureus (GC 1131) [1, 5]: 1 mg/L (≈ 0.726 µM)
MIC Staphylococcus aureus (GC 4541) [1]: 1 mg/L (≈ 0.726 µM)
MIC Staphylococcus aureus (GC 4541) [1, 5]: 1 mg/L (≈ 0.726 µM)
MIC Staphylococcus aureus (GC 4542) [1]: 1 mg/L (≈ 0.726 µM)
MIC Staphylococcus aureus (GC 4542) [1, 5]: 1 mg/L (≈ 0.726 µM)
MIC Staphylococcus aureus-SMITH (GC 4543) ([1]; 18 hours at 35° C.): 1 mg/L (≈ 0.726 µM)
MIC Staphylococcus aureus-SMITH (GC 4543) [1, 5]: 1 mg/L (≈ 0.726 µM)
MIC Staphylococcus aureus (GC 4544) [1]: 2 mg/L (≈ 1.45 µM)
MIC Staphylococcus aureus (GC 4544) [1, 5]: 2 mg/L (≈ 1.45 µM)
MIC Staphylococcus aureus (GC 4545) [1]: 1 mg/L (≈ 0.726 µM)
MIC Staphylococcus aureus (GC 4545) [1, 5]: 1 mg/L (≈ 0.726 µM)
MIC Staphylococcus haemolyticus (GC 4546) [1]: 1 mg/L (≈ 0.726 µM)
MIC Staphylococcus haemolyticus (GC 4546) [1, 5]: 1 mg/L (≈ 0.726 µM)
MIC Coagulase Negative Staphylococcus (GC 4547) [1]: 1 mg/L (≈ 0.726 µM)
MIC Coagulase Negative Staphylococcus (GC 4547) [1, 5]: 1 mg/L (≈ 0.726 µM)
MIC Coagulase Negative Staphylococcus (GC 4548) [1]: 1 mg/L (≈ 0.726 µM)
MIC Coagulase Negative Staphylococcus (GC 4548) [1, 5]: 1 mg/L (≈ 0.726 µM)
MIC Coagulase Negative Staphylococcus (GC 4549) [1]: 1 mg/L (≈ 0.726 µM)
MIC Coagulase Negative Staphylococcus (GC 4549) [1, 5]: 1 mg/L (≈ 0.726 µM)
MIC Coagulase Negative Staphylococcus (GC 4551) [1]: 1 mg/L (≈ 0.726 µM)
MIC Coagulase Negative Staphylococcus (GC 4551) [1, 5]: 1 mg/L (≈ 0.726 µM)
MIC Coagulase Negative Staphylococcus (ID-3941) [1]: 1 mg/L (≈ 0.726 µM)
MIC Coagulase Negative Staphylococcus (ID-3941) [1, 5]: 1 mg/L (≈ 0.726 µM)
MIC Streptococcus agalactiae (GC 4564) [2]: <0.5 mg/L
MIC Streptococcus pneumoniae (GC 4565) [2]: <0.5 mg/L
MIC Streptococcus pyogenes (ID-3187) [2]: <0.5 mg/L
MIC Escherichia coli (ATCC 25922) [3]: 64 mg/L (≈ 46.5 µM)
MIC Enterococccus avium (GC 4558) [4]: 4 mg/L (≈ 2.9 µM)
MIC Enterococccus faecalis (ATCC 29212) [4]: 4 mg/L (≈ 2.9 µM)
MIC Enterococccus faecalis (GC 4552) [4]: 4 mg/L (≈ 2.9 µM)
MIC Enterococccus faecalis (GC 4553) [4]: 4 mg/L (≈ 2.9 µM)
MIC Enterococccus faecalis (GC 4554) [4]: 2 mg/L (≈ 1.45 µM)
MIC Enterococccus faecium (GC 2243) [4]: 4 mg/L (≈ 2.9 µM)
MIC Enterococccus faecium (GC 4556) [4]: 2 mg/L (≈ 1.45 µM)
MIC Enterococccus faecium (GC 4557) [4]: 2 mg/L (≈ 1.45 µM)
MIC Enterococcus faecalis (GC 2242) [4]: 2 mg/L (≈ 1.45 µM)

Reference: patent publication US8247211B2, “Glycopeptide antibiotics” (American Cyanamid Company, priority 2001, dated 2012)
